Assay results as given in ChEMBL document CHEMBL1201862, “PubChem BioAssay data set” (2004).
Activity calls are given as the source filed them.

Legend:
Mu-type opioid receptor = Mu-type opioid receptor (Homo sapiens, UniProt P35372); format: functional, cell-based;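 note: U2OS cells with beta-arrestin recruitment to OPRM1 by beta-gal complementation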
[1] = target: 5-hydroxytryptamine receptor 2A (Mus musculus, UniProt P35363); format: functional, cell-based;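 note: CHO-K1 cells with tagged receptor and beta-arrestin; agonist potency measured as compound-induced activation of the receptor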
5-hydroxytryptamine receptor 2A, sequence (P35363 whole entry): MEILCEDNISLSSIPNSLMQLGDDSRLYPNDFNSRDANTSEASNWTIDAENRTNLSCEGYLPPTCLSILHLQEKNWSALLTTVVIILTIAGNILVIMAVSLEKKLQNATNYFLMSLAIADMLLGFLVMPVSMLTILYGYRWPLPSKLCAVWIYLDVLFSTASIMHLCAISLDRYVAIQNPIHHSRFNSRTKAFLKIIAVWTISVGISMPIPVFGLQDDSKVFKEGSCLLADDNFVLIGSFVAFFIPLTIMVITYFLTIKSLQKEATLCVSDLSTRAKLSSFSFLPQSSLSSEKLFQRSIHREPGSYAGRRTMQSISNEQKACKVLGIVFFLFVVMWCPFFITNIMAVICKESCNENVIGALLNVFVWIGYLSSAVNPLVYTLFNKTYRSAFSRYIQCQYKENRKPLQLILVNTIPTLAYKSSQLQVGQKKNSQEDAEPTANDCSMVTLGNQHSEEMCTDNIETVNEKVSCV

[2] = CRF-BP/CRF-R2 complex antagonists, dose response, cell-based, uHTS hits, 384-well (AID 651639); format: functional, Homo sapiens; conditions: read-out: IC50_Mean
[3] = target: T1, Corticotropin-releasing factor receptor 2/Corticotropin-releasing factor-binding protein (Homo sapiens, UniProt P24387+Q13324); test: activators of CRF receptor 2 with binding protein – uHTS hits, confirmation (AID 602473); format: functional; conditions: read-out: EC50_Mean
T1 sequence (Q13324 whole entry): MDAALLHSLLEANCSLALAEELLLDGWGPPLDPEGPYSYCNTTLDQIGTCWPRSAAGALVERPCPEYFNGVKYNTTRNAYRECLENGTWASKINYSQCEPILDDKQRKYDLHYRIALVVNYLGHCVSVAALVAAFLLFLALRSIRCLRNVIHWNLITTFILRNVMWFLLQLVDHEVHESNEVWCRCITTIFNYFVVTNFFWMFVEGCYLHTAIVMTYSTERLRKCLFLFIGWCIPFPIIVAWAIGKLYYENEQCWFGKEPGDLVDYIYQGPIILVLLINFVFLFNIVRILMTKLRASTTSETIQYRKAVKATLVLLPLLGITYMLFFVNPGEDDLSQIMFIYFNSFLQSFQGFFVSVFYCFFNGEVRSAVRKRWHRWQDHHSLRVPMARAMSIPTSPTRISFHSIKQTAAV
T1 sequence (P24387 whole entry): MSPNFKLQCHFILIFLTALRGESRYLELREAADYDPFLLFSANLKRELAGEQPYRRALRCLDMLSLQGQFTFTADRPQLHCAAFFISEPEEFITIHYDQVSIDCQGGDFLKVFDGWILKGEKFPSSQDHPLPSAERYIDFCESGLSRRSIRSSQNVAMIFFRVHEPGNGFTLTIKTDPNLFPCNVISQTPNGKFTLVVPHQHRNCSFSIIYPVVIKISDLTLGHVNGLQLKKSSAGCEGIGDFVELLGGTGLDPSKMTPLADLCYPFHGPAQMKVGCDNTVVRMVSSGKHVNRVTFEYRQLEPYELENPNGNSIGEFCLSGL

[4] = target: T1, Corticotropin-releasing factor receptor 2/Corticotropin-releasing factor-binding protein; test: Dose Response confirmation of uHTS hits for small molecule antagonists of the CRF-binding protein and CRF-R2 receptor complex.; format: functional; conditions: read-out: IC50_Mean
[5] = system: Streptococcus sp. 'group A'; test: growth inhibition of control SK(-) GAS strain, dose response, counter-screen for streptokinase expression inhibitor project, luminescence, kanamycin, BacTiterGlo, confirmation (AID 1900); format: functional, organism-based
Albumin = Albumin (Bos taurus, UniProt P02769); test: Counterscreen for inhibitors of T-cell receptor (TCR)-CD3 interaction: Fluorescence-based biochemical high throughput dose response assay to identify inhibitors of T-cell receptor (TCR)-CD3 interaction using a TAMRA-labeled BSA probe.; format: functional
Albumin, sequence (P02769 whole entry): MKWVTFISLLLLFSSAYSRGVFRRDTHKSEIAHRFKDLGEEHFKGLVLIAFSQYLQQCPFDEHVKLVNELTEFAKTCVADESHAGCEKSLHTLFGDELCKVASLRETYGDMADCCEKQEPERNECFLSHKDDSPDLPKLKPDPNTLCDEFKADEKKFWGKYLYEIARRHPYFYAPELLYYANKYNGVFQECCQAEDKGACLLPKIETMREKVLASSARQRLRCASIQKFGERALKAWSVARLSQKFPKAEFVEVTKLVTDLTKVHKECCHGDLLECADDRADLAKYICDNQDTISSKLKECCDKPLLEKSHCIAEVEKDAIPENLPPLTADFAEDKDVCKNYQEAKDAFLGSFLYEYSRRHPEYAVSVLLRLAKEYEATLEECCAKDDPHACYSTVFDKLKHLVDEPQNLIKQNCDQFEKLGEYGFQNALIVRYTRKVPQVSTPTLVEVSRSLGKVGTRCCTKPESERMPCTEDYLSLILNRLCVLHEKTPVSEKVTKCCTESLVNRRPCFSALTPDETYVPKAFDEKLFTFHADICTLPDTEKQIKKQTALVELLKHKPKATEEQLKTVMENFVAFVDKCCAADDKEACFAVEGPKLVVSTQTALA

Streptococcus = test: Group A Streptococcus viability loss, dose response, counter-screen for streptokinase expression inhibitor project, luminescence, BacTiterGlo (AID 1915); format: functional, organism-based;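 note: potency for reduction of bacterial viability or growth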
Vero = test: cells; format: functional; conditions: Chlorocebus sabaeus
cells = format: functional
Protein skinhead-1 = target: T2, Protein skinhead-1 (Caenorhabditis elegans, UniProt P34707); format: functional
T2 sequence (P34707 whole entry): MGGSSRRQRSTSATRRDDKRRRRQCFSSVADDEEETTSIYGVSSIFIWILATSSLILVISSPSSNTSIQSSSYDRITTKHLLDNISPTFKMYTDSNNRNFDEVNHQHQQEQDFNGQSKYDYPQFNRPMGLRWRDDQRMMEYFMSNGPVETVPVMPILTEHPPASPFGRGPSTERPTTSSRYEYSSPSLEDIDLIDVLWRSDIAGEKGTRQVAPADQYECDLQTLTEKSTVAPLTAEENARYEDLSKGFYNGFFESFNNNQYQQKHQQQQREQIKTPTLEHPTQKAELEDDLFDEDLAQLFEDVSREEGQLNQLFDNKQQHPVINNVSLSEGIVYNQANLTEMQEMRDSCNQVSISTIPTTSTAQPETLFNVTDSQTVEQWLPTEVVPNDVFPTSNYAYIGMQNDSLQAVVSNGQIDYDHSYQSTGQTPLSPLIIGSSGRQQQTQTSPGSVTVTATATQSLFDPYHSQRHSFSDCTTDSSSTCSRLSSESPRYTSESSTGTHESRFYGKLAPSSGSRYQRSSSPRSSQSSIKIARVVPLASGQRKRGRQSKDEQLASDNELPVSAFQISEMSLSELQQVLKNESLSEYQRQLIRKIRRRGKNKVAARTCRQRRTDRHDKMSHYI

[6] = inhibitors of clade B AD8 Env fusion, dose response, cell-based, cherry-pick (AID 652062); format: functional;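 note: luciferase signal from cell-cell fusion driven by HIV-1 clade B AD8 Env; potency is for inhibitors of fusion seen as a drop in luminescence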
[7] = off-target signal loss in HeLa-CEM21 co-culture – HeLa F-luc CTL cells, cherry-picked, counter-screen for HIV-1 Env fusion inhibitor project, dose response (AID 652040); format: functional, cell-based;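 note: potency for signal decrease marking cytotoxic or nonspecific inhibition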
[8] = CEM21 lymphoblast cell cytotoxicity, dose response, cytotoxicity control for viral fusion inhibitor project, CellTiter-Glo luminescence, cherry-picked (AID 652042); format: functional, cell-based;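 note: potency for signal decrease meaning cytotoxicity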
[9] = ZM109 Env clade C HIV-1 fusion inhibitors, dose response, HeLa effector, CEM target cells, luciferase, cherry-pick (AID 652058); format: functional, cell-based
[10] = inhibitors of HIV Env-driven cell fusion, dose response, cherry-pick (AID 652057); format: functional, cell-based
[11] = target: T3, Sentrin-specific protease 8 (Homo sapiens, UniProt Q96LD8); format: functional
T3 sequence (Q96LD8 whole entry): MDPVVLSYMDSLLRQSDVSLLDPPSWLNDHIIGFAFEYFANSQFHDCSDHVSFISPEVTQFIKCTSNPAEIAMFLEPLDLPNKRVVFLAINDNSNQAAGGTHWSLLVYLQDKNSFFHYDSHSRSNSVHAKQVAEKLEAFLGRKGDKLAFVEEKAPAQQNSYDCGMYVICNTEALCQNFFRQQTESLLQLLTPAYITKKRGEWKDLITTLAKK

[12] = target: T4, Carboxy-terminal domain RNA polymerase II polypeptide A small phosphatase 1 (Homo sapiens, UniProt Q9GZU7); test: inhibitors of CTDSP1, concentration-response testing, biochemical assay, absorbance-based, actives from ultra-high-throughput screening (AID 540297); format: functional
T4 sequence (Q9GZU7 whole entry): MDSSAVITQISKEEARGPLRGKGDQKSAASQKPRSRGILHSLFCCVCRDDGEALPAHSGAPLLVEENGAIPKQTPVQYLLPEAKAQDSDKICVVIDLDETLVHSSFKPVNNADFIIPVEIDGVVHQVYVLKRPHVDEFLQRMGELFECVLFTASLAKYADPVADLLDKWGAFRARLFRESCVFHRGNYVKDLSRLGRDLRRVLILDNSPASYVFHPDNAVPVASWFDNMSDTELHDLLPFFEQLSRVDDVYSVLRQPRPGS

Fatty acid synthase [13] = target: T5, Fatty acid synthase (Homo sapiens, UniProt P49327); test: FAS thioesterase domain inhibitors, dose response, biochemical, kinetic fluorescence intensity (AID 624326); format: functional;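 note: rate of fluorescence rise from hydrolysis of a fluorogenic O-methyl fluorescein ester substrate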
T5 sequence (P49327 whole entry, the tested form may be a part): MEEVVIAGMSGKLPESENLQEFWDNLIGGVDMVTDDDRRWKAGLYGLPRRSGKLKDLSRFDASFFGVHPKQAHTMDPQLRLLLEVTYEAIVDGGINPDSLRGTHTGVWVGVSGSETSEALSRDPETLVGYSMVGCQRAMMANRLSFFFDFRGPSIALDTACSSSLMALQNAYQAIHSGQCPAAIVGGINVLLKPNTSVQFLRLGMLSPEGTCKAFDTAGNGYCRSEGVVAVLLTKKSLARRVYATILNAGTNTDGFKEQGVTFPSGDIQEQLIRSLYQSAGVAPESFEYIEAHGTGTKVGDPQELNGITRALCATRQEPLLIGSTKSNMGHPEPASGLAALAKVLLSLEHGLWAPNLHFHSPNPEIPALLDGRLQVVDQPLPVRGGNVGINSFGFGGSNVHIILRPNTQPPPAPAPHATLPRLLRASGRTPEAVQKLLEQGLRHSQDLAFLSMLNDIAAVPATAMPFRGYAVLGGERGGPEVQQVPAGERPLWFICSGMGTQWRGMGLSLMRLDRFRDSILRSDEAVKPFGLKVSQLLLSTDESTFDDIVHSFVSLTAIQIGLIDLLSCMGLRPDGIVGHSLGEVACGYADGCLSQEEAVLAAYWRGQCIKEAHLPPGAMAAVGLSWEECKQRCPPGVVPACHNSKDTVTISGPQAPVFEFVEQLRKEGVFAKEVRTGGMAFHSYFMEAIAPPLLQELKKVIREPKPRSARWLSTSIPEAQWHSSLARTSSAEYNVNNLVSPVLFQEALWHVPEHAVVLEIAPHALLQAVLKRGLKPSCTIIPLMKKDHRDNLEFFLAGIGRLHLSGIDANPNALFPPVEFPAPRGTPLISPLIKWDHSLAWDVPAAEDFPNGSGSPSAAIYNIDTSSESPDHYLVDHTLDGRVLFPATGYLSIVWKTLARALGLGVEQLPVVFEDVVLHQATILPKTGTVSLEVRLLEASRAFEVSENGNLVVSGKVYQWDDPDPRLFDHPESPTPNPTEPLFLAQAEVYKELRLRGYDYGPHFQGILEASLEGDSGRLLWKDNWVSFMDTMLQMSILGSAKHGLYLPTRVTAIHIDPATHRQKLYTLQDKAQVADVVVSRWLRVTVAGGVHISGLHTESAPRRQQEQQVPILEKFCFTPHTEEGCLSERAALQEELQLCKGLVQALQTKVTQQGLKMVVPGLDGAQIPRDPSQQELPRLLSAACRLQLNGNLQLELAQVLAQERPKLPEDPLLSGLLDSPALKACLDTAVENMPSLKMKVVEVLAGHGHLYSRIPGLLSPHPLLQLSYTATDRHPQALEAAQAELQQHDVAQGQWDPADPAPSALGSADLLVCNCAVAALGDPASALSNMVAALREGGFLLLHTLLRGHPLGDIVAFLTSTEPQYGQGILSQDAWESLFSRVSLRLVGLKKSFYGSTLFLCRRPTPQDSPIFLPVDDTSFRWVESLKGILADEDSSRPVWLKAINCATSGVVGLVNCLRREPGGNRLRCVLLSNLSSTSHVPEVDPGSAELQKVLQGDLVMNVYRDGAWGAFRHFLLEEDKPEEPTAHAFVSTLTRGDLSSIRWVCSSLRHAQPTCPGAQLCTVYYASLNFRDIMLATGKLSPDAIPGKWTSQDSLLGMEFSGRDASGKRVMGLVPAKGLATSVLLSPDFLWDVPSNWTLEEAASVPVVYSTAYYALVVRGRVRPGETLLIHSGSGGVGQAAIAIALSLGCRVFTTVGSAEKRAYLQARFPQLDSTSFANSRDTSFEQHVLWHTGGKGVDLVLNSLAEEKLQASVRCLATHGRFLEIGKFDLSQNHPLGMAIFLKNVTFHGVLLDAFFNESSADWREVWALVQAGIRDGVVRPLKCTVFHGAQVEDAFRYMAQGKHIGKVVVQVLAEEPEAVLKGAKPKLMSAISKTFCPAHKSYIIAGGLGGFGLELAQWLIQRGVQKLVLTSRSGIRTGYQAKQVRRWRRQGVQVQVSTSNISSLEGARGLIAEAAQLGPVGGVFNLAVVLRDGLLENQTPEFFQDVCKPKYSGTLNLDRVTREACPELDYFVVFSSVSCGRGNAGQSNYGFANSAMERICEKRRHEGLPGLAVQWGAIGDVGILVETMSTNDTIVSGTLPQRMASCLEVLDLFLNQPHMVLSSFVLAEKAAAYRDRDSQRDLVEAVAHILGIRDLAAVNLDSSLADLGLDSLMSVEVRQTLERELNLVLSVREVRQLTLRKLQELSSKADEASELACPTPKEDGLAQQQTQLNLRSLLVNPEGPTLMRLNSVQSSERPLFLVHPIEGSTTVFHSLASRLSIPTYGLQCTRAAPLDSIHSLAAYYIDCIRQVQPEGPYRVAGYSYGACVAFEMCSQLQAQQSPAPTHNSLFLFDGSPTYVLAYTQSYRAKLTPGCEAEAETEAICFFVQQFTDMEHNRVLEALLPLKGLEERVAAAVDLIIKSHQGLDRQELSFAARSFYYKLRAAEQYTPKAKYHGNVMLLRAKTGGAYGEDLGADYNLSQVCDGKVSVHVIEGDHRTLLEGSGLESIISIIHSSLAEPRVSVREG

[14] = target: T3, Sentrin-specific protease 8; format: functional; remark: listed apart in the source
Fatty acid synthase [15] = target: T5, Fatty acid synthase; test: FAS thioesterase domain inhibitors, dose response, biochemical, endpoint fluorescence intensity, uHTS hits (AID 624327); format: functional;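 note: fluorescence from hydrolysis of an O-methyl fluorescein acyl ester substrate by the enzyme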
Aminopeptidase N = target: T6, Aminopeptidase N (Plasmodium falciparum FcB1/Columbia, UniProt O96935); test: P. falciparum M1AAP inhibitors, biochemical, fluorogenic H-Leu-NHMec substrate, 1536-well (AID 1445); parameters: species or system Plasmodium falciparum 3D7, 3D7
T6 sequence (O96935 whole entry): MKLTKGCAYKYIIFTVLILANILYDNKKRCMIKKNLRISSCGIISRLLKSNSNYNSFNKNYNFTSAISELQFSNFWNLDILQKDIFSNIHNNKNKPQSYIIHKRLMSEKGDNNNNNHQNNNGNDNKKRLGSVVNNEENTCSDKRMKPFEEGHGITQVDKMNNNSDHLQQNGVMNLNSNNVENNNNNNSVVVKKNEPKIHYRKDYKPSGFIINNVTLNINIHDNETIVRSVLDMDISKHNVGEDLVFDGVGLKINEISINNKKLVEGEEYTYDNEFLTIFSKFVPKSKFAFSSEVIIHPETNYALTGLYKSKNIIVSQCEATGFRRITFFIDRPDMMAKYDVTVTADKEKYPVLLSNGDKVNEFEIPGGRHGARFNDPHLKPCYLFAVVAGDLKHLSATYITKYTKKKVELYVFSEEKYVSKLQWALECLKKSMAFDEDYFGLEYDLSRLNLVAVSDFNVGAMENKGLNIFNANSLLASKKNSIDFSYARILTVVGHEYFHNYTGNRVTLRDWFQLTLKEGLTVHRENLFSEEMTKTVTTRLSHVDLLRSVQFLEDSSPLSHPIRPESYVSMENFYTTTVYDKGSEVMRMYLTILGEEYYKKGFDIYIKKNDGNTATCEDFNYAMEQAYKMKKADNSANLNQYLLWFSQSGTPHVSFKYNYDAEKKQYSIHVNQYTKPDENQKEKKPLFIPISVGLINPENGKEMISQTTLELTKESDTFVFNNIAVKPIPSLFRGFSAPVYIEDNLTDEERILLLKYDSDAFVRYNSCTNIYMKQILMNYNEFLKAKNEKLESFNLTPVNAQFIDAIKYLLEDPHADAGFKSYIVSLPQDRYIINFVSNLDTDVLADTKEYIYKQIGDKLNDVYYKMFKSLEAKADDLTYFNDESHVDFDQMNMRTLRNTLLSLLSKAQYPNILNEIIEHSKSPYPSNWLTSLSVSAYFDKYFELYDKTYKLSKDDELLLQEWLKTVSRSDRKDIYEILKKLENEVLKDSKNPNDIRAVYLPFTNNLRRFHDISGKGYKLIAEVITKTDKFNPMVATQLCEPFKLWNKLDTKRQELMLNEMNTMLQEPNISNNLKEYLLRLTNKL

[16] = target: T7, Zinc finger protein mex-5 (Caenorhabditis elegans, UniProt Q9XUB2); test: MEX-5/TCR-2 RNA interaction inhibitors, dose response, biochemical, C. elegans, fluorescence polarization (AID 1960)
T7 sequence (Q9XUB2 whole entry): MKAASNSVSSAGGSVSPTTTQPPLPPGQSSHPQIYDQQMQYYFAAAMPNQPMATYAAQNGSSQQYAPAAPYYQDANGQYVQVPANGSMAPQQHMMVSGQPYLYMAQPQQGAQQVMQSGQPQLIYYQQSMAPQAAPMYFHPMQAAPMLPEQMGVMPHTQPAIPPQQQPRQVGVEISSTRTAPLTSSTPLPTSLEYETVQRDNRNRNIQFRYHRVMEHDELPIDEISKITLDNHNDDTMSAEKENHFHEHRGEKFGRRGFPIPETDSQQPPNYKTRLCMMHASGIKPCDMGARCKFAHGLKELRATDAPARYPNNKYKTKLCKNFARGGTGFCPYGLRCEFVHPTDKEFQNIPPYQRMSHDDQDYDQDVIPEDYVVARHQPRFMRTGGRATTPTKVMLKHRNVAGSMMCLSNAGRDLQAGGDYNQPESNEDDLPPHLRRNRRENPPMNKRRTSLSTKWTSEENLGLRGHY

[17] = target: T8, RNA-binding protein pos-1 (Caenorhabditis elegans, UniProt G5EF15); test: inhibitors of POS-1/mex-3 RNA binding, dose response, biochemical, fluorescence polarization (AID 1964);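 note: purified POS-1 fused to maltose binding protein made in E. coli; potency of compounds blocking POS-1 binding to fluorescent RNA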
T8 sequence (G5EF15 whole entry): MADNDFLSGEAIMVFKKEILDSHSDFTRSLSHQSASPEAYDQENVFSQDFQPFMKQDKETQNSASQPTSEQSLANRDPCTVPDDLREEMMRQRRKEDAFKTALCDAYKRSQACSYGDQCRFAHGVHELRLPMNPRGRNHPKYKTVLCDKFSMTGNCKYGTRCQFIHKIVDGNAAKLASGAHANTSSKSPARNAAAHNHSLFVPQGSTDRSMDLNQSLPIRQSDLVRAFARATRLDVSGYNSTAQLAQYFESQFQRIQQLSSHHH

Mu-type opioid receptor, sequence (P35372 whole entry): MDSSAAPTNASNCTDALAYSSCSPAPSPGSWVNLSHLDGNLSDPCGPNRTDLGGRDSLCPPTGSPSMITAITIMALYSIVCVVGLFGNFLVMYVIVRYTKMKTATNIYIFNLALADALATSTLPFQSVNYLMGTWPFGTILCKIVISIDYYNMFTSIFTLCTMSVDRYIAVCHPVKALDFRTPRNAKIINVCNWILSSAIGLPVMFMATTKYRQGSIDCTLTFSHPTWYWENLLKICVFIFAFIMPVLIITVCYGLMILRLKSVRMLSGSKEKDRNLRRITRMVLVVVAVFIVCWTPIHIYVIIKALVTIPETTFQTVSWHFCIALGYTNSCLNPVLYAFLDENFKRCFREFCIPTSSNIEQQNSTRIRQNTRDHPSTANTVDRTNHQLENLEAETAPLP

Compound: O=C(c1ccco1)N1CCN(CCCCOc2ccc(F)cc2)CC1
- EC50 (Mu-type opioid receptor): 92.5 µM (inactive)
- EC50 [1]: 4.68 µM (active)

Compound: CC(=O)NC(Cc1ccc(C(C)C)cc1)C(=O)NC1CCN(C(=O)c2cccc(C)c2)CC1 (configuration not stated)
- IC50 [2]: 10.8 µM (active)
- EC50 [3]: > 53 µM (inactive)
- IC50 [4]: 24.4 µM (active)

Compound: COc1ccc(C(=O)NNC(=S)NC(=O)c2ccc(Br)o2)cc1OC
- EC50 [5]: 0.79 µM (active)
- IC50 (Albumin): > 94.1 µM (inactive)
- EC50 (Streptococcus): 9.11 µM (active)
- CC50 (Vero): > 25 µM (active)

Compound: CCOC(=O)C1CCN(Cc2cccc(Oc3ccc(Cl)cc3)c2)CC1
- EC50 (Mu-type opioid receptor): 92.5 µM (inactive)
- EC50 [1]: 2.82 µM (active)

Compound: Cc1cc(C)n(-c2ccc(C(=O)Oc3ccc4c(c3)OCO4)cc2)n1
- IC50 [2]: > 20 µM (inactive)
- EC50 [3]: > 53 µM (inactive)
- IC50 [4]: 9.66 µM (active)
- IC50 (cells): 6.28 µM (active)
- IC50 (Protein skinhead-1): > 100 µM (inactive)

Compound: O=C(C1CCC1)N1CCc2cc(S(=O)(=O)NCCN3CCN(c4ccccc4F)CC3)ccc21
- EC50 (Mu-type opioid receptor): 92.5 µM (inactive)
- EC50 [1]: 13.4 µM (inactive)

Compound: O=C1NC(=S)S/C1=C\c1cc(Cl)ccc1Cl
- IC50 [2]: 9.52 µM (active)
- EC50 [3]: > 53 µM (inactive)
- IC50 [4]: 2.87 µM (active)

Compound: COc1ccc(CC(N)c2csc(NC(=O)Nc3ccccc3Oc3ccccc3)n2)cc1 (configuration not stated)
- AC50 [6]: 2.16 µM (active)
- AC50 [7]: 1.72 µM (active)
- AC50 [8]: 21.3 µM (active)
- AC50 [9]: 2.85 µM (active)
- AC50 [10]: 1.17 µM (active)

Compound: Cc1ccc(-n2[nH]c(C)c(/C=N/Nc3ccc([N+](=O)[O-])cc3[N+](=O)[O-])c2=O)cc1
- IC50 [11]: 100 µM (inactive)
- EC50 [3]: > 53 µM (inactive)
- IC50 [12]: 6.07 µM (active)
- IC50 (Fatty acid synthase [13]): 13.6 µM (active)
- IC50 [4]: 6.1 µM (active)
- IC50 [14]: 62.4 µM (inactive)
- IC50 (Fatty acid synthase [15]): 12.6 µM (active)

Compound: Cc1cc(C(=O)N/N=C/c2cc(Cl)cc([N+](=O)[O-])c2O)[nH]n1
- IC50 (Aminopeptidase N): 52.3 µM (active)
- EC50 [16]: > 300 µM (inconclusive)
- EC50 [17]: > 300 µM (not active)
- IC50 (Albumin): > 94.1 µM (inactive)
